Measurements as given in US8536209B2, “Aminotriazole derivatives as ALX agonists” (Actelion Pharmaceuticals Ltd., priority 2007, dated 2013).

Biological target: T1, recombinant human ALX receptor (Homo sapiens, UniProt P25090)
T1 construct: expressed in transfected cells; host or cells: HEK293 (HEK293-hALXR-Gα16)
T1 sequence (P25090 1-351): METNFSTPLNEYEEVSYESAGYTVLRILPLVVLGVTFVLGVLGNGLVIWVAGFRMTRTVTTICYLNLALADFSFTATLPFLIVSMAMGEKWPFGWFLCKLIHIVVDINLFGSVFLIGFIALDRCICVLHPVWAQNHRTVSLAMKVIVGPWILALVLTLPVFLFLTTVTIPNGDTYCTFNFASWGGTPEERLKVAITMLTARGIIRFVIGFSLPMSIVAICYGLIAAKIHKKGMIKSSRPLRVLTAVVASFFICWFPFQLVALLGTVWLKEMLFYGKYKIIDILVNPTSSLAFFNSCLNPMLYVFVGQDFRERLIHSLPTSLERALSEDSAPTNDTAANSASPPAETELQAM
Assay: Intracellular calcium measurements (FLIPR), ALX receptor agonistic activity
Type: cell-based
Conditions: HEK293-hALXR-Gα16 cells, normalized to WKYMVm 10 nM
Experimental: The ALX receptor agonistic activity of the compounds of formula (I) is determined in accordance with the following experimental method.
Intracellular Calcium Measurements:
Cells expressing recombinant human ALX receptor and the G-protein Gα16 (HEK293-hALXR-Gα16) were grown to 80% confluency in Growing Medium (GM). Cells were detached from culture dishes with a cell dissociation buffer (Invitrogen, 13151-014), and collected by centrifugation at 1,000 rpm at RT for 5 min in Assay Buffer (AB) (equal parts of Hank's BSS (Gibco, 14065-049) and DMEM without Phemol Red (Gibco, 11880-028)). After 60 min incubation at 37° C. under 5% CO2 in AB supplemented with 1 μM Fluo-4 (AM) (TEFLABS.COM, 0152), 0.04% (v/v) Pluronic F-127 (Molecular Probes, P6866), and 20 mM HEPES (Gibco, 15630-056), the cells were washed and resuspended in AB. They were then seeded onto 384-well FLIPR assay plates (Greiner, 781091) at 50′000 cells in 70 μl per well and sedimented by centrifugation at 1′000 rpm for 1 min. Stock solutions of test compounds were made up at a concentration of 10 mM in DMSO, and serially diluted in AB to concentrations required for activation dose response curves. WKYMVm (Phoenix Peptides) was used as a reference agonist. A FLIPR^384 instrument (Molecular Devices) was operated according to the manufacturer's standard instructions, adding 4 μl of test compound dissolved at 10 mM in DMSO and diluted prior to the experiment in assay buffer to obtain the desired final concentration. Changes in fluorescence were monitored before and after the addition of test compounds at lex=488 nm and lem=540 nm. Emission peak values above base level after compounds addition were exported after base line subtraction. Values were normalized to high-level control (WKYMVm compound, 10 nM final concentration) after subtraction of the base line value (AB addition). The program XLlfit 3.0 (IDBS) was used to fit the data to a single site dose response curve of the equation (A+((B−A)/(1+((C/x)^D)))) and to calculate the EC50 values.

In order of rising EC50:
1. CC(=O)c1coc(Cn2ncc(NC(=O)c3ncoc3-c3ccccc3)n2)n1 [Example 91, 5-Phenyl-oxazole-4-carboxylic acid [2-(4-acetyl-oxazol-2-ylmethyl)-2H-[1,2,3]triazol-4-yl]-amide]  0.7 nM
2. CC(=O)c1ccc(Cn2ncc(NC(=O)c3nc(C4CC4)oc3-c3ccccc3)n2)o1 [Example 30, 2-Cyclopropyl-5-phenyl-oxazole-4-carboxylic acid [2-(5-acetyl-furan-2-ylmethyl)-2H-[1,2,3]triazol-4-yl]-amide]  0.8 nM
3. CC(=O)c1ccc(Cn2ncc(NC(=O)/C=C/c3cccc(OC(F)(F)F)c3)n2)o1 [Example 8, (E)-N-[2-(5-Acetyl-furan-2-ylmethyl)-2H-[1,2,3]triazol-4-yl]-3-(3-trifluoromethoxy-phenyl)-acrylamide]  1.2 nM
4. CC(=O)c1csc(Cn2ncc(NC(=O)OCc3ccccc3Cl)n2)n1 [Example 40, [2-(4-Acetyl-thiazol-2-ylmethyl)-2H-[1,2,3]triazol-4-yl]-carbamic acid 2-chloro-benzyl ester]  1.3 nM
5. CC(=O)c1nc(Cn2ncc(NC(=O)OCc3ccccc3Cl)n2)co1 [Example 104, [2-(2-Acetyl-oxazol-4-ylmethyl)-2H-[1,2,3]triazol-4-yl]-carbamic acid 2-chloro-benzyl ester]  1.4 nM
6. CC(=O)CCCCn1ncc(NC(=O)c2ncoc2-c2ccccc2)n1 [Example 5, 5-Phenyl-oxazole-4-carboxylic acid [2-(5-oxo-hexyl)-2H-[1,2,3]triazol-4-yl]-amide]  1.6 nM
7. CC(=O)c1ccc(Cn2ncc(NC(=O)c3ncoc3-c3ccccc3)n2)o1 [Example 1, 5-Phenyl-oxazole-4-carboxylic acid [2-(5-acetyl-furan-2-ylmethyl)-2H-[1,2,3]triazol-4-yl]-amide]  1.8 nM
8. CC(=O)c1ccc(Cn2ncc(NC(=O)c3ncoc3-c3cccc(N(C)C)c3)n2)o1 [Example 38, 5-(3-Dimethylamino-phenyl)-oxazole-4-carboxylic acid [2-(5-acetyl-furan-2-ylmethyl)-2H-[1,2,3]triazol-4-yl]-amide]  1.9 nM
9. CC(=O)c1ccc(Cn2ncc(NC(=O)c3nc(C)oc3-c3cccc(C(F)(F)F)c3)n2)o1 [Example 26, 2-Methyl-5-(3-trifluoromethyl-phenyl)-oxazole-4-carboxylic acid [2-(5-acetyl-furan-2-ylmethyl)-2H-[1,2,3]triazol-4-yl]-amide]  2 nM
10. COCCc1cccc(-c2ocnc2C(=O)Nc2cnn(Cc3ccc(C(C)=O)o3)n2)c1 [Example 42, 5-[3-(2-Methoxy-ethyl)-phenyl]-oxazole-4-carboxylic acid [2-(5-acetyl-furan-2-ylmethyl)-2H-[1,2,3]triazol-4-yl]-amide]  2.1 nM
11. CC(=O)c1ccc(Cn2ncc(NC(=O)c3ncoc3-c3ccccc3)n2)s1 [Example 33, 5-Phenyl-oxazole-4-carboxylic acid [2-(5-acetyl-thiophen-2-ylmethyl)-2H-[1,2,3]triazol-4-yl]-amide]  2.8 nM
12. CC(F)(F)CCCCn1ncc(NC(=O)c2ncoc2-c2ccccc2)n1 [Example 36, 5-Phenyl-oxazole-4-carboxylic acid [2-(5,5-difluoro-hexyl)-2H-[1,2,3]triazol-4-yl]-amide]  4.9 nM
13. COCCc1nc(C(=O)Nc2cnn(Cc3ccc(C(C)=O)o3)n2)c(-c2ccccc2)o1 [Example 93, 2-(2-Methoxy-ethyl)-5-phenyl-oxazole-4-carboxylic acid [2-(5-acetyl-furan-2-ylmethyl)-2H-[1,2,3]triazol-4-yl]-amide]  5.2 nM
14. CC(=O)c1ncc(Cn2ncc(NC(=O)c3nc(C)oc3-c3cccc(F)c3)n2)o1 [Example 99, 5-(3-Fluoro-phenyl)-2-methyl-oxazole-4-carboxylic acid [2-(2-acetyl-oxazol-5-ylmethyl)-2H-[1,2,3]triazol-4-yl]-amide]  8.1 nM
15. CC(=O)c1cccc(Cn2ncc(NC(=O)OCc3ccccc3Cl)n2)c1 [Example 35, [2-(3-Acetyl-benzyl)-2H-[1,2,3]triazol-4-yl]-carbamic acid 2-chloro-benzyl ester]  8.5 nM
16. CC(=O)c1ccnc(Cn2ncc(NC(=O)OCc3ccccc3Cl)n2)c1 [Example 41, [2-(4-Acetyl-pyridin-2-ylmethyl)-2H-[1,2,3]triazol-4-yl]-carbamic acid 2-chloro-benzyl ester]  21 nM
17. CC(=O)c1cnc(Cn2ncc(NC(=O)OCc3ccccc3Cl)n2)s1 [Example 71, [2-(5-Acetyl-thiazol-2-ylmethyl)-2H-[1,2,3]triazol-4-yl]-carbamic acid 2-chloro-benzyl ester]  23 nM
18. CS(=O)(=O)c1ccc(Cn2ncc(NC(=O)c3ncoc3-c3ccccc3)n2)o1 [Example 37, 5-Phenyl-oxazole-4-carboxylic acid [2-(5-methanesulfonyl-furan-2-ylmethyl)-2H-[1,2,3]triazol-4-yl]-amide]  24 nM
19. CC(=O)c1ccc(Cn2ncc(NC(=O)c3ncoc3-c3cccc(C(F)(F)F)n3)n2)o1 [Example 105, 5-(6-Trifluoromethyl-pyridin-2-yl)-oxazole-4-carboxylic acid [2-(5-acetyl-furan-2-ylmethyl)-2H-[1,2,3]triazol-4-yl]-amide]  36 nM
20. COc1cc(-c2ocnc2C(=O)Nc2cnn(Cc3ccc(C(C)=O)o3)n2)ccc1C [Example 21, 5-(3-Methoxy-4-methyl-phenyl)-oxazole-4-carboxylic acid [2-(5-acetyl-furan-2-ylmethyl)-2H-[1,2,3]triazol-4-yl]-amide]  53 nM
21. CC(=O)c1cc(Cn2ncc(NC(=O)c3ncoc3-c3ccccc3)n2)cs1 [Example 49, 5-Phenyl-oxazole-4-carboxylic acid [2-(5-acetyl-thiophen-3-ylmethyl)-2H-[1,2,3]triazol-4-yl]-amide]  57 nM
22. CC(=O)c1ccc(Cn2ncc(NC(=O)c3nc(C)sc3-c3cccc(C)c3)n2)o1 [Example 50, 2-Methyl-5-m-tolyl-thiazole-4-carboxylic acid [2-(5-acetyl-furan-2-ylmethyl)-2H-[1,2,3]triazol-4-yl]-amide]  98 nM
23. CC(=O)c1cccc(Cn2ncc(NC(=O)c3ncoc3-c3ccccc3)n2)n1 [Example 43, 5-Phenyl-oxazole-4-carboxylic acid [2-(6-acetyl-pyridin-2-ylmethyl)-2H-[1,2,3]triazol-4-yl]-amide]  203 nM
